Structures are written as SMILES.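 Briefly, cells in 96-well plates were exposed to five compound concentrations for 48 h, and endpoints were estimated by linear interpolation. At the GI50, growth is halved.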 The source made the active and inactive calls. No stated cut-off is given here; in the data, active = GI50 up to about 1.1 µM and inactive = higher. Where a SMILES comes first, the peptide text is derived from it. [ ]: non-standard residue; d: D form. The star is where a group is joined. NMeAc5c = CNC1(C(=O)O)CCCC1; Boc = CC(C)(C)OC(=O)*; OBn = c1ccc(CO*)cc1

As usually defined, the GI50 is the concentration that inhibits growth by half.

Test systems include CCRF-CEM; U-251; A549; MDA-N; ACHN; M14; HCC 2998; BT-549; A498; MCF7; UO-31; MDA-MB-231; NCI-H460; HT-29; NCI-H226; MOLT-4; KM12; OVCAR-8; SK-OV-3; Hs-578T.
What all share (assay): DTP human tumour cell line panel, 48 h

For `N#CC1=C2SCCN2C(=O)C(C#N)C12CCCCC2` (stereo not drawn), the GI50 in the experiment on CCRF-CEM, with U-251, in the experiment with A549, with MDA-N, with ACHN and with M14 was > 100 µM (inactive) in each case. For the same compound, the GI50 with HCC 2998, with BT-549, in the experiment on A498, in the experiment with MCF7, with UO-31 and in the experiment on MDA-MB-231 was > 100 µM (inactive) throughout. The GI50 with NCI-H460, in the experiment on HT-29, in the experiment with NCI-H226, in the experiment with MOLT-4, in the experiment with KM12 and in the experiment on OVCAR-8 was > 100 µM (inactive) each time. In addition, the GI50 with SK-OV-3 is > 100 µM (inactive).
For the compound `NC(Cc1ccccc1)C(=O)N[C@H]1c2ccsc2/C(=N/O)[C@H]1O` (stereo partly drawn), the GI50 in the experiment with CCRF-CEM, with U-251, in the experiment with A549, in the experiment with MDA-N, in the experiment on M14 and in the experiment on HCC 2998 was > 100 µM (inactive) throughout. Besides, the GI50 was > 100 µM (inactive) with BT-549; > 100 µM (inactive) with A498; > 100 µM (inactive) with MCF7; 25.6 µM (inactive) in the experiment with UO-31; > 100 µM (inactive) in the experiment on MDA-MB-231; > 100 µM (inactive) with NCI-H460. Moreover, the GI50 with HT-29 was > 100 µM (inactive); in the experiment with NCI-H226, > 100 µM (inactive); in the experiment on MOLT-4, > 10 µM (inactive); with OVCAR-8, > 100 µM (inactive); in the experiment on SK-OV-3 it was > 100 µM (inactive).
As to `O=C(OCC(OC(=O)c1ccccc1)C(OC(=O)c1ccccc1)C(OC(=O)c1ccccc1)c1cnn(-c2ccccc2)n1)c1ccccc1` (stereo not drawn), the GI50 with Hs-578T, in the experiment on CCRF-CEM, in the experiment on A549, in the experiment with MDA-N, in the experiment with ACHN and in the experiment with M14 was > 100 µM (inactive) in each case. The GI50 in the experiment on HCC 2998, with BT-549, with A498, in the experiment on MCF7, with UO-31 and in the experiment with NCI-H460 was > 100 µM (inactive) each time. Further, the GI50 in the experiment on HT-29, with NCI-H226, with MOLT-4, in the experiment with KM12, in the experiment on OVCAR-8 and with SK-OV-3 was > 100 µM (inactive) each time.
Regarding `CC(=O)/C=C1\Nc2ccccc2N\C1=C/C(C)=O`, the GI50 is 29.9 µM (inactive) with Hs-578T; 17.2 µM (inactive) with CCRF-CEM; 23.8 µM (inactive) with U-251; 21.5 µM (inactive) with A549; 29.9 µM (inactive) in the experiment on MDA-N; 22.6 µM (inactive) with ACHN. Moreover, the GI50 was 21.6 µM (inactive) with M14; 35 µM (inactive) in the experiment on BT-549; 27.2 µM (inactive) with A498; 36.6 µM (inactive) in the experiment on UO-31; 22 µM (inactive) in the experiment on MDA-MB-231; 16.5 µM (inactive) with NCI-H460. The GI50 with HT-29 is 20.1 µM (inactive); in the experiment with NCI-H226 it was 21.4 µM (inactive); with MOLT-4 it was 14.5 µM (inactive); in the experiment with KM12 it was 24 µM (inactive); in the experiment on OVCAR-8, 24.7 µM (inactive); with SK-OV-3, 30.6 µM (inactive).
As for `C=C(C)[C@@H]1CC[C@@H](C)[C@](O)([C@@H]2C[C@@H]([C@H](COC(=O)c3ccccc3)OC(=O)c3ccccc3)OC2=O)C1`, the GI50 in the experiment with CCRF-CEM, with U-251, in the experiment with A549, with MDA-N, in the experiment on ACHN and in the experiment with M14 was > 100 µM (inactive) each time. In addition, the GI50 with HCC 2998 is > 100 µM (inactive); with BT-549, > 100 µM (inactive); with A498, > 100 µM (inactive); in the experiment with MCF7, > 100 µM (inactive); in the experiment on UO-31, 29 µM (inactive); in the experiment with MDA-MB-231, > 100 µM (inactive). For the same compound, the GI50 in the experiment on NCI-H460 was 39.1 µM (inactive); with HT-29, > 100 µM (inactive); in the experiment with NCI-H226, > 100 µM (inactive); in the experiment with MOLT-4, 28 µM (inactive); in the experiment on KM12, > 100 µM (inactive); in the experiment on OVCAR-8, > 100 µM (inactive). For the same compound, the GI50 with SK-OV-3 is > 100 µM (inactive).
As for `ClC1(Cl)C2CCOC21n1cnc2ccccc21` (stereo not drawn), the GI50 with Hs-578T, with CCRF-CEM, in the experiment with U-251, in the experiment on A549, with MDA-N and with M14 was > 100 µM (inactive) in each case. For the same compound, the GI50 in the experiment on HCC 2998 is > 100 µM (inactive); in the experiment on BT-549, > 100 µM (inactive); in the experiment on MCF7, > 100 µM (inactive); in the experiment with UO-31, 53.8 µM (inactive); in the experiment on MDA-MB-231 it was > 100 µM (inactive); in the experiment with HT-29, > 100 µM (inactive). Further, the GI50 in the experiment with NCI-H226, with MOLT-4, with KM12, with OVCAR-8 and in the experiment with SK-OV-3 was > 100 µM (inactive) each time.
As for `COc1ccc(Cc2nc3cc([N+](=O)[O-])ccc3n2C[C@@H]2CCCN3CCCCC23)cc1` (stereo partly drawn), the GI50 is 11.2 µM (inactive) in the experiment with CCRF-CEM; 20.9 µM (inactive) in the experiment with U-251; 15.8 µM (inactive) with A549; 17.7 µM (inactive) in the experiment with MDA-N; 33.2 µM (inactive) in the experiment on ACHN; 14.2 µM (inactive) in the experiment with M14. The GI50 is 12.6 µM (inactive) with HCC 2998; 19.7 µM (inactive) in the experiment on BT-549; 16.6 µM (inactive) in the experiment on A498; 27.2 µM (inactive) with MCF7; 8.3 µM (inactive) with UO-31; 19.3 µM (inactive) in the experiment with MDA-MB-231. In addition, the GI50 in the experiment with NCI-H460 is 28.2 µM (inactive); in the experiment on HT-29 it was 17 µM (inactive); with NCI-H226, 31.6 µM (inactive); with MOLT-4, 18.6 µM (inactive); with KM12, 16.3 µM (inactive); in the experiment with OVCAR-8 it was 45.7 µM (inactive). Besides, the GI50 with SK-OV-3 was 20.2 µM (inactive).
In the case of `COC(CNC(=O)C(C)NC(=O)C(C)NC(=O)c1ccccc1)OC` (stereo not drawn), the GI50 with Hs-578T, in the experiment on CCRF-CEM, with U-251, in the experiment on A549, in the experiment with MDA-N and with ACHN was > 100 µM (inactive) throughout. The GI50 in the experiment on M14, in the experiment on BT-549, in the experiment on MCF7, in the experiment on MDA-MB-231, in the experiment on NCI-H460 and with HT-29 was > 100 µM (inactive) throughout. Further, the GI50 in the experiment with NCI-H226, in the experiment on MOLT-4, in the experiment with KM12, with OVCAR-8 and in the experiment with SK-OV-3 was > 100 µM (inactive) each time.
`CCOC(=O)c1c(-c2ccc(Cl)cc2)c(C#N)c(=S)n(C2OC(CO)C(O)C(O)C2O)c1-c1ccccc1` (stereo not drawn): the GI50 with Hs-578T was 24.2 µM (inactive); with CCRF-CEM, 18.1 µM (inactive); with U-251, 17 µM (inactive); in the experiment on A549, 34.2 µM (inactive); in the experiment on MDA-N, 23 µM (inactive); with ACHN, 35.6 µM (inactive). In addition, the GI50 with M14 was 19.7 µM (inactive); in the experiment with HCC 2998, 28.9 µM (inactive); with BT-549 it was 29.4 µM (inactive); in the experiment on MCF7, 22.3 µM (inactive); in the experiment with UO-31, 38 µM (inactive); in the experiment with MDA-MB-231, 31.2 µM (inactive). The GI50 in the experiment with NCI-H460 was 26.9 µM (inactive); with HT-29 it was 17.9 µM (inactive); in the experiment on MOLT-4, 13.5 µM (inactive); in the experiment with KM12 it was 34.5 µM (inactive); with SK-OV-3 it was 28.3 µM (inactive).
As for `CN(C(=O)C(Cc1ccccc1)NC(=O)OC(C)(C)C)C1(C(=O)NC(Cc2ccccc2)C(=O)OCc2ccccc2)CCCC1` (stereo not drawn) (Boc-Phe-[NMeAc5c]-Phe-OBn; configuration not given here), the GI50 is 41.3 µM (inactive) in the experiment on Hs-578T; 39.7 µM (inactive) in the experiment with CCRF-CEM; 20.9 µM (inactive) in the experiment on U-251; 33.3 µM (inactive) in the experiment on A549; 23.2 µM (inactive) in the experiment with MDA-N; 24.9 µM (inactive) in the experiment with ACHN. The GI50 in the experiment on M14 is 23.1 µM (inactive); in the experiment with HCC 2998, 77.4 µM (inactive); with BT-549, > 100 µM (inactive); in the experiment on MCF7, 32.1 µM (inactive); in the experiment on UO-31, 25.9 µM (inactive); in the experiment with MDA-MB-231 it was 23.4 µM (inactive). Besides, the GI50 is 23.6 µM (inactive) in the experiment with NCI-H460; 22.3 µM (inactive) in the experiment with HT-29; 40.6 µM (inactive) with NCI-H226; 26.9 µM (inactive) in the experiment on MOLT-4; 36.6 µM (inactive) in the experiment on KM12; 38 µM (inactive) in the experiment on OVCAR-8. Also, the GI50 with SK-OV-3 was 0.653 µM (active).
On to `Oc1ccc(/C=C/c2cc(O)cc(O)c2)cc1` [RESVERATROL], for which the GI50 in the experiment on U-251 was > 100 µM (inactive); in the experiment with A549 it was 51.6 µM (inactive); in the experiment with MDA-N, 50.7 µM (inactive); with ACHN, 27 µM (inactive); in the experiment with M14, 49.8 µM (inactive); in the experiment with HCC 2998, 62.4 µM (inactive). The GI50 is > 100 µM (inactive) with BT-549; 24.3 µM (inactive) in the experiment with A498; 67 µM (inactive) with MCF7; 35.7 µM (inactive) in the experiment on UO-31; > 100 µM (inactive) in the experiment with MDA-MB-231; 42.1 µM (inactive) with NCI-H460. Moreover, the GI50 in the experiment with HT-29 is 24.3 µM (inactive); with NCI-H226 it was 39.9 µM (inactive); in the experiment on MOLT-4 it was 7.23 µM (inactive); with KM12, 31.9 µM (inactive); in the experiment on OVCAR-8, 48.8 µM (inactive); in the experiment on SK-OV-3, 79.3 µM (inactive).

These data come from ChEMBL document CHEMBL1201862, “PubChem BioAssay data set” (2004).
